Data on six compounds can be found in patent US11702411B2, “Pyridine, pyrazine, and triazine compounds as allosteric SHP2 inhibitors” (Revolution Medicines, Inc., priority 2017, dated 2023).

SHP2, sequence (Q06124 whole entry): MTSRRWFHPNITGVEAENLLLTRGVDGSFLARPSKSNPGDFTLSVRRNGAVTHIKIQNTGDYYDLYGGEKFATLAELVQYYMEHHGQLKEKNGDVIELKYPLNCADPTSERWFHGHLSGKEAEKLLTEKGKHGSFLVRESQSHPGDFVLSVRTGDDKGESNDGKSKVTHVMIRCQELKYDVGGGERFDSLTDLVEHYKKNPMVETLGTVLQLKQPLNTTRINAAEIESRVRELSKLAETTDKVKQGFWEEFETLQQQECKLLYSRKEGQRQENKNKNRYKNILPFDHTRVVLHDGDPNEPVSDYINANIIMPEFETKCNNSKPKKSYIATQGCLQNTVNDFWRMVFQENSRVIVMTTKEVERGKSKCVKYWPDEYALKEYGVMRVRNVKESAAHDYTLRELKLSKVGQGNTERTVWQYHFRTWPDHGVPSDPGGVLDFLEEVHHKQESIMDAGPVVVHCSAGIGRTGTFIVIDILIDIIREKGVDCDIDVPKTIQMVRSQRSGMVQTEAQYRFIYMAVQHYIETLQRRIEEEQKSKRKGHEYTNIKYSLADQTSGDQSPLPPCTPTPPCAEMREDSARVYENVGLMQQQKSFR

The target of this assay is SHP2 (Homo sapiens (Human), UniProt Q06124). In words: SHP2 allosteric inhibition assay (DiFMUP prompt fluorescence, activating peptide). The format is biochemical. To be noted: 0.2 nM SHP2, 0.5 μM activating peptide, DiFMUP substrate; read-out: SHP2 Allosteric IC50. From the text:
Without wishing to be bound by theory, SHP is allosterically activated through binding of bis-tyrosyl-phosphorylated peptides to its Src Homology 2 (SH2) domains. The latter activation step leads to the release of the auto-inhibitory interface of SHP2, which in turn renders the SHP2 protein tyrosine phosphatase (PTP) active and available for substrate recognition and reaction catalysis. The catalytic activity of SHP2 was monitored using the surrogate substrate DiFMUP in a prompt fluorescence assay format.
The phosphatase reactions were performed at room temperature in 96-well black polystyrene plate, flat bottom, non-binding surface (Corning, Cat #3650) using a final reaction volume of 100 μL and the following assay buffer conditions: 50 mM HEPES, pH 7.2, 100 mM NaCl, 0.5 mM EDTA, 0.05% P-20, 1 mM DTT.
The inhibition of SHP2 by compounds of the present disclosure (concentrations varying from 0.00005-10 μM) was monitored using an assay in which 0.2 nM of SHP2 was incubated with 0.5 μM of Activating Peptide 1 (sequence: H2N-LN(pY)IDLDLV(dPEG8)LST(pY)ASINFQK-amide) or Activating Peptide 2 (sequence: H2N-LN(pY)AQLWHA(dPEG8)LTI(pY)ATIRRF-amide). After 30-60-minutes incubation at 25° C., the surrogate substrate DiFMUP (Invitrogen, Cat #D6567) was added to the reaction and activity was determined by a kinetic read using a microplate reader (Envision, Perkin-Elmer or Spectramax M5, Molecular Devices). The excitation and emission wavelengths were 340 nm and 450 nm, respectively. Initial rates were determined from a linear fit of the data, and the inhibitor dose response curves were analyzed using normalized IC50 regression curve fitting with control based normalization.
Consider `C[C@@H]1OCC2(CCN(c3ncc(Sc4ccnc(N5CC(O)C5)c4Cl)nc3CO)CC2)[C@@H]1N` [Compound 29, 1-[4-({5-[(3S,4S)-4-amino-3-methyl-2-oxa-8-azaspiro[4.5]decan-8-yl]-6-(hydroxymethyl)pyrazin-2-yl}sulfanyl)-3-chloropyridin-2-yl]azetidin-3-ol], for which the IC50 was at most 50 nM.

Regarding `C[C@@H]1OCC2(CCN(c3ncc(Sc4cccc(Cl)c4Cl)nc3CO)CC2)[C@@H]1N` [Compound 30, {3-[(3S,4S)-4-amino-3-methyl-2-oxa-8-azaspiro[4.5]decan-8-yl]-6-[(2,3-dichlorophenyl)sulfanyl]pyrazin-2-yl}methanol], the IC50 is at most 50 nM.

`C[C@@H]1OCC2(CCN(c3ncc(Sc4ccnc(N)c4Cl)nc3CO)CC2)[C@@H]1N` [Compound 31, {6-[(2-amino-3-chloropyridin-4-yl)sulfanyl]-3-[(3S,4S)-4-amino-3-methyl-2-oxa-8-azaspiro[4.5]decan-8-yl]pyrazin-2-yl}methanol]: the IC50 is at most 50 nM.

On to `C[C@@H]1OCC2(CCN(c3ncc(Sc4cc(N)ncc4Cl)nc3CO)CC2)[C@@H]1N` [Compound 32, {3-[(3S,4S)-4-amino-3-methyl-2-oxa-8-azaspiro[4.5]decan-8-yl]-6-[(2-amino-5-chloropyridin-4-yl)sulfanyl]pyrazin-2-yl}methanol], for which the IC50 was at most 50 nM.

Take `N[C@@H]1CCCC12CCN(c1ncc(-c3cccc(Cl)c3Cl)nc1C(F)F)CC2` [Compound 34, (1R)-8-[5-(2,3-dichlorophenyl)-3-(difluoromethyl)pyrazin-2-yl]-8-azaspiro[4.5]decan-1-amine]: the IC50 lay in the range of 50 to 500 nM.

Take `C[C@@H]1OCC2(CCN(c3ncc(-c4cccc(Cl)c4Cl)nc3C(F)F)CC2)[C@@H]1N` [Compound 35, (3S,4S)-8-[5-(2,3-dichlorophenyl)-3-(difluoromethyl)pyrazin-2-yl]-3-methyl-2-oxa-8-azaspiro[4.5]decan-4-amine]: the IC50 was 50 to 500 nM.
